Experiment [1] is described as follows: polymyxin IC50 shift, WT versus phoP- Typhimurium – Salmonella typhimurium, WT and phoP- strains, set 2, mechanism study for PhoP regulon inhibitor project (AID 2816). The note with it: S. Typhimurium polymyxin IC50 shift, OD600, 24 h, at 150 µM.
Experiment [2] deals with S. Typhimurium polymyxin IC50 shift, OD600, 24 h. The experiment is described as above.
The mark [3] stands for this setting: measured here: phoP- strain counter-screen shift.
[4] abbreviates: measured here: wild-type strain IC50 shift, stronger effect = higher value.
Where [5] appears, read: WT polymyxin IC50 at 150 uM, stronger effect = lower value.

Calls of active or inactive are those of the source.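 Rule for the calls: active = compound-induced drop in polymyxin IC50 in wild-type bacteria exceeding double the drop in a mutant lacking PhoP; inactive = the rest.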

The source of these data is PubChem BioAssay AID2816 (Southern Research Specialized Biocontainment Screening …, 2010).

In the case of `O=C1C2=C(Nc3ccccc3SC2c2ccc(I)cc2)c2ccccc21` (stereo not drawn), the polymyxin IC50 shift difference WT - phoP- in experiment [1] (stronger effect = higher value) was 1.63 (inactive). Besides, the polymyxin IC50 shift in experiment [1] (setting [3]) turned out to be 1.03; in experiment [1] (setting [4]), 2.66. For the same compound, the polymyxin IC50 in experiment [2] (setting [5]) was 2470 nM; in experiment [2] (phoP- polymyxin IC50 at 150 uM) it was 2890 nM.
Usually IC50 stands for the concentration that inhibits the measured activity by half. Consider `COc1ccc(CNC(=S)Nc2ccncc2)cc1`, for which the polymyxin IC50 shift in experiment [1] (setting [3]) was found to be 1.46; in experiment [1] (setting [4]), 10.1. Moreover, the concentration for half-maximal inhibition (IC50) in experiment [2] was 75 µM. In experiment [2] (phoP- polymyxin IC50 at 150 uM), the polymyxin IC50 was 4420 nM.
Take `O=C1C2=C(Nc3ccccc3SC2c2ccsc2)c2ccccc21` (stereo not drawn): in experiment [1] (stronger effect = higher value), the polymyxin IC50 shift difference WT - phoP- is 2.14 (inactive). In addition, the polymyxin IC50 shift is -0.359 in experiment [1] (setting [3]) and 1.78 in experiment [1] (setting [4]). The polymyxin IC50 in experiment [2] (setting [5]) came out at 2670 nM; in experiment [2] (phoP- polymyxin IC50 at 150 uM), 3000 nM.
Take `O=C(Nc1ccc(Br)cc1)N1CCCN(Cc2ccccc2F)C1`: the polymyxin IC50 shift difference WT - phoP- in experiment [1] (stronger effect = higher value) was -2.51 (inactive). In addition, the values for the polymyxin IC50 shift in experiment [1] (setting [3]) and in experiment [1] (setting [4]) were 1.55 and -0.956, respectively. Also, the polymyxin IC50 was 4820 nM in experiment [2] (setting [5]) and 2620 nM in experiment [2] (phoP- polymyxin IC50 at 150 uM).
On to `COc1cccc(C2Sc3ccccc3NC3=C2C(=O)c2ccccc23)c1` (stereo not drawn), for which the polymyxin IC50 shift difference WT - phoP- in experiment [1] (stronger effect = higher value) is -1.75 (inactive). Further, the polymyxin IC50 shift was determined as 5.35 in experiment [1] (setting [3]) and 3.6 in experiment [1] (setting [4]). Further, the polymyxin IC50 in experiment [2] (setting [5]) is 2110 nM.
In the case of `CCn1cc(C(=O)O)c(=O)c2cc(F)c(N3CCN(C(=S)Nc4ccccc4C(F)(F)F)CC3)cc21`, the polymyxin IC50 shift difference WT - phoP- in experiment [1] (stronger effect = higher value) is -3.38 (inactive). Further, the results for the polymyxin IC50 shift in experiment [1] (setting [3]) and in experiment [1] (setting [4]) were 3.42 and 0.032, respectively. In addition, the results for the polymyxin IC50 in experiment [2] (setting [5]) and in experiment [2] (phoP- polymyxin IC50 at 150 uM) were 2590 nM and 2950 nM, respectively.
